# Results: the NIST ThermoML archive (doi:10.1021/je8001688)
# Numbers after ± are expanded uncertainties.
# Details: 298.15 K; 101.33 kPa; Liquid; Vibrating tube method
row,mass density,Structure (SMILES)
1,1382.4 ± 0.6 kg/m3,"OCC(F)(F)F [2,2,2-trifluoroethanol]"
2,774 ± 0.5 kg/m3,C1CCCCC1 [cyclohexane]
3,680 ± 0.5 kg/m3,CCCCCCC [heptane]
4,781.4 ± 0.5 kg/m3,CC(C)O [propan-2-ol]

row,Structure (SMILES),mass density
1,CO [methanol],787 ± 0.5 kg/m3
